The subject of the assay is poly-I:C-induced cell accumulation in mice airways. As to the kind of experiment: Poly-I:C-induced cell accumulation in mice. It is filed as in vivo, A/J mice. The method, then:
Specific pathogen-free A/J mice (males, 5 weeks old) were dosed with poly (I:C)-LMW (1 mg/mL, 40 μL) (InvivoGen, San Diego, Calif., USA) intranasally twice daily for 3 days under anaesthasia (3% isoflurane). Test substances were dosed intra-nasally (50 μL in 10% DMSO/isotonic saline vehicle) 2 hr before each poly-I:C treatment. At 24 hr after the last poly-I:C challenge, animals were anesthetized, the trachea was cannulated and bronchial alveolar lavage (BAL) was obtained by instilling into and then withdrawing from the lungs, isotonic saline (100 mL/kg). Total cell numbers in the BALF samples were measured using a haemocytometer under a phase-contrast microscope.
The proportions of alveolar macrophages and neutrophils were determined by FACS analysis using anti-mouse MOMA2-FITC (macrophage) or anti-mouse 7/4-FITC (neutrophil). Cells were suspended in PBS and incubated with anti-MOMA2-FITC (2 μg/mL, Catalogue no SM065F, Acris Antibodies GmbH, Herford, Germany) or anti-7/4-FITC (2 μg/mL, Catalogue no CL050F, Acris Antibodies GmbH, Herford, Germany) for 30 min at 30° C., and then counterstained with propidium iodide (2 μg/mL) to allow exclusion of necrotic cells. The cells were washed with PBS, and transferred to FACS tubes. Samples was set in a flow cytometer (ALTRA II; Beckman Coulter Japan, Tokyo, Japan), and a single-parameter FL2 [PMT2] (FITC) histogram with log x-axis was plotted to illustrate relative intensity of FITC. Data files were stored for subsequent analysis using Kaluza analysis software (ver. 1.2) to calculate the proportion of each cell type.

Setting [1] is: 0.002 mg/mL intra-nasal + Poly I:C.
Where [2] appears, read: 0.02 mg/mL intra-nasal + Poly I:C.
The mark [3] stands for this setting: 0.2 mg/mL intra-nasal + Poly I:C.

Structures are written as SMILES.

Take `COCCOCCOCC#Cc1cccc2nc(Cn3nc(-c4cc(O)cc(F)c4)c4c(N)ncnc43)n(Cc3ccccc3C(F)(F)F)c(=O)c12` [Compound (I), 2-((4-Amino-3-(3-fluoro-5-hydroxyphenyl)-1H-pyrazolo[3,4-d]pyrimidin-1-yl)methyl)-5-(3-(2-(2-methoxyethoxy)ethoxy)prop-1-yn-1-yl)-3-(2-(trifluoromethyl)benzyl)quinazolin-4(3H)-one]: the Cell numbers in BALF, Macrophages, % inhibition under setting [1] amounted to 49%; the “Cell numbers in BALF, Macrophages, % inhibition” value under setting [2] is on record as 0.3 (69) %; the “Cell numbers in BALF, Macrophages, % inhibition” value under setting [3] is given as 0.3 (79) %. Further, the “Cell numbers in BALF, Neutrophils, % inhibition” value is, setting by setting: under setting [1], 0.3 (43) %; under setting [2], 65%; under setting [3], 0.2 (77) %. Moreover, the “potency versus compound A, poly-I:C-induced macrophage and neutrophil accumulation into BALF” value (direct comparison, FIG. 1) is on record as “significantly greater potency than compound A”.

For the origin of these results see patent publication US20170334919A1, “2-((4-AMINO-3-(3-FLUORO-5-HYDROXYPHENYL)-1H-PYRAZOLO[3,4-D]PYRIMIDIN-1 -YL)METHYL)-3-(2-(TRIFLUORO-MET HYL)BENZYL)QUINAZOLIN-4(3H)-ONE DERIVATIVES AND THEIR USE AS PHOSPHOINOSITIDE 3-KINASE INHIBITORS” (RESPIVERT LTD., priority 2013, published 2017).
